Laboratory results as given in US6864086B2, “Nitric oxide-scavenging system for culturing oocytes, embryos, or other cells” (Board of Supervisors of Louisiana State University and …, priority 1998, dated 2005).
Values joined by “and” are separate entries in the source; they are usually repeats but may differ in a detail not shown here. Equal entries are not always repeated.

Tested on: bovine embryos co-cultured with granulosa cells
Assay: Example 4: Hb (1 or 10 μg/ml) added to mBECM-C, embryos co-cultured with granulosa cells
Type: cell-based
Procedure: mBECM containing 10 μM β-mercaptoethanol was used to culture embryos, as described in J. Lim et al., “Roles of growth factors in the development of bovine embryos fertilized in vitro and cultured singly in a defined medium,” Reprod. Fertil. Dev., 8, 1199-1205 (1996). To culture individual 8-cell embryos we used mBECM supplemented with 1 ng/ml platelet derived growth factor type AB (PDGF; Upstate Biotechnology Inc., Lake Placid, N.Y.), 1 ng/ml transforming growth factor-β (TGF; R & D System, Minneapolis, Minn.), 50 ng/ml arachidonic acid (AA; Cayman Chemical Co., Ann Arbor, Mich.), 100 μM glutathione (GSH; Sigma Co.) and 1 mg/ml polyvinyl alcohol (PVA) (mBECM-S). mBECM to which 10% (v/v) FBS was added (mBECM-C) was used for co-culturing inseminated zygotes with CGs and for producing 8-cell embryos. Osmolarity of the medium was maintained within the range of 265-290 mOsm.
The bovine cumulus-oocyte complexes (COCs) used were collected in Madison, Wis. (BOMED, Inc.), and were shipped in 2-ml of maturation medium in a battery powered incubator via overnight express mail service. Oocytes matured during transit and arrived within 24 h after exposure to maturation medium, pre-equilibrated at 39° C. in 5% CO2 in air. At 22-24 h after exposure to the medium, the COCs were inseminated in vitro as described in J. Lim et al., “Intracytoplasmic glutathione concentration and the role of β-mercaptoethanol in preimplantation development of bovine embryos,” Theriogenology, 46, 429-439 (1996). At 18 h post-insemination, COCs were cultured in groups (30-35 embryos) in a 4-well multidish (Nunc, Roskilde, Denmark) containing 0.8-ml of mBECM-C. Embryos were dislodged from CGs at 36-48 h post-insemination.
In Example 1, embryos (83-85 per group) collected 18 h post-insemination were cultured in mBECM-C, to which 0, 0.008, or 0.04 mM SNP was added at 18 or 60 h post-insemination. In Example 2, 8-cell embryos (80 per group) were produced in a co-culture system containing CGs and mBECM-C, and then beginning at 60 h post-insemination were cultured singly in a defined culture medium (mBECM-S), to which 0, 0.0016, 0.008, or 0.04 mM of SNP (S-0501, Sigma Co.) was added. In Example 3 embryos, either uncleaved (n=99) or developed to the 2-cell stage (90), were collected 48 h post-insemination; and cleaved embryos, either developed to the morula stage (69) or degenerate (63) were collected 144 h post-insemination. NO metabolites were then measured in the embryos. In Example 4, three groups of 95 zygotes each were co-cultured with CGs in mBECM-C, to which 0, 1, or 10 μg/ml Hb (bovine, mainly methemoglobin, H-2500, Sigma Co.) was added. […] Inseminated oocytes (104 per group) were co-cultured with CGs in MBECM-C up to 192 h post-insemination; and Hb (1 μg/ml) was added to the medium at 18, 60, or 144 h post-insemination. In Example 6, inseminated oocytes (93 per group) were cultured in the presence or absence of CGs in mBECM-C to which either 0 or 1 μg/ml Hb was added. In Example 7, 8-cell embryos (100 per group), obtained after culture in mBECM-C supplemented with Hb (1 μg/ml), were cultured singly in mBECM-S, with or without Hb.
Oocytes or 8-cell embryos were randomly and equally allocated to each treatment group. In Examples 1, 2, and 4-7, oocytes or embryos that had developed to the 2-cell, 8-cell, >8-cell, 16-cell morula, and blastocyst stages were individually scored ‘1’ (developed) at 48, 60, 96, 120, 144 and 192 h post-insemination, respectively. […] Sums of the scores in each stage of development were evaluated by analysis of variance (ANOVA) using the general linear model (PROC-GLM) in the SAS program software. In Example 3, concentrations of NO metabolites in embryos were subjected to ANOVA. […] Differences were regarded as statistically significant where P values were less than 0.05.

hemoglobin [Hb]
Percent of Embryos Developed to 2-cell (Hb 1 μg/ml in mBECM-C): 81%
Percent of Embryos Developed to 16-cell (Hb 1 μg/ml in mBECM-C): 52%
Percent of Embryos Developed to >8-cell (Hb 1 μg/ml in mBECM-C): 60%
Percent of Embryos Developed to Blastocyst (Hb 1 μg/ml in mBECM-C): 34% and 34^b %
Percent of Embryos Developed to Morula (Hb 1 μg/ml in mBECM-C): 46%
Percent of Embryos Developed to 2-cell (Hb 10 μg/ml in mBECM-C): 78%
Percent of Embryos Developed to 16-cell (Hb 10 μg/ml in mBECM-C): 43%
Percent of Embryos Developed to >8-cell (Hb 10 μg/ml in mBECM-C): 53%
Percent of Embryos Developed to Blastocyst (Hb 10 μg/ml in mBECM-C): 27% and 27^ab %
Percent of Embryos Developed to Morula (Hb 10 μg/ml in mBECM-C): 41%
